Measured values taken from US20230295201A1 (Gilead Sciences, Inc., priority 2020, published 2023).
Read-outs that look alike come from different tables or passages of the source.

Legend:
Format in all cases: cell-based
RSV strain A2 = assay: RSV HEp-2 EC50 (infectious cytopathic cell protection assay); conditions: HEp-2 cells, RSV A2, 4 days, read-out: RSV HEp-2 EC50
Method in brief: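 HEp-2 cells mixed with titered RSV A2 at 50,000 cells/ml were added to plates holding 3-fold serial compound dilutions in DMSO, then incubated 4 days at 37° C. Cytoprotection was read as cell viability by CellTiter-Glo luminescence and converted to percent inhibition against 0% and 100% inhibition controls.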

RSV A2 = assay: RSV NHBE EC50 (RSV A2 antiviral assay in normal human bronchial epithelial cells); conditions: NHBE cells, RSV A2, 4 days, read-out: RSV NHBE EC50
HRV16 = HRV16 HELA EC50 (cytopathic effect in H1-HeLa cells)
Method in brief: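 H1-HeLa cells seeded one day before, given 3-fold serial compound dilutions in triplicate just prior to infection with pre-titrated virus. Incubated 96 h at 33 °C/5% CO2; protection from cytopathic effect read as viability by CellTiter-Glo luminescence, normalised to infected untreated (0%) and uninfected (100%) controls.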

DENV2 replicon = assay: DENV-2 Huh-7 Rep EC50 (replicon luminescence); conditions: read-out: DENV-2 Huh-7 Rep EC50
Method in brief: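 Huh-7 cells carrying a DENV2 replicon, 5,000 cells/well, were incubated with dosed compounds for 48 h at 37° C. EnduRen live-cell substrate was added 1.5 h before luminescence reading. EC50 came from dose-response against DMSO-only wells.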

[1] = human respiratory syncytial virus, HEp-2, 96 h
[2] = human respiratory syncytial virus, NHBE, 96 h
[3] = 96 h, H1-HeLa cells, 33° C., read-out: HRV16 HELA EC50
[4] = Dengue virus, DENV2, Huh-7, 48 h, Huh-7 replicon cells, 48 hours
[5] = H1-HeLa cells, 96 h, 33° C.; read-out: HRV16 HELA EC50
[6] = human respiratory syncytial virus, 96 h
[7] = Dengue virus, DENV2, Huh-7, 48 h

Row | Structure (SMILES) | EC50 (RSV strain A2; [1]) [nM] | EC50 (RSV A2; [2]) [nM] | EC50 (HRV16; [3]) [µM] | EC50 (DENV2 replicon; [4]) [µM] | EC50 (RSV strain A2) [nM] | EC50 (RSV A2) [nM] | EC50 (HRV16; [5]) [µM] | EC50 (DENV2 replicon; Huh-7 replicon cells, 48 hours) [µM] | EC50 (RSV strain A2; [6]) [nM] | EC50 (RSV A2; [6]) [nM] | EC50 (DENV2 replicon; [7]) [µM]
1 | CCOC(=O)[C@H](C)N[P@](=O)(OC[C@@]1(C#N)O[C@@H](c2ccc3c(N)ncnn23)[C@H](O)[C@@H]1O)Oc1ccccc1 [Example 29, Ethyl ((S)-(((2R,3S,4R,5S)-5-(4-aminopyrrolo[2,1-f][1,2,4]triazin-7-yl)-2-cyano-3,4-dihydroxytetrahydrofuran-2-yl)methoxy)(phenoxy)phosphoryl)-L-alaninate] | 91 | 932 | 0.678 | 36.1 |  |  |  |  |  |  | 
2 | COC(=O)[C@H](C)N[P@](=O)(OC[C@@]1(C#N)O[C@@H](c2ccc3c(N)ncnn23)[C@H](O)[C@@H]1O)Oc1ccccc1 [Example 52, methyl ((S)-(((2R,3S,4R,5S)-5-(4-aminopyrrolo[2,1-f][1,2,4]triazin-7-yl)-2-cyano-3,4-dihydroxytetrahydrofuran-2-yl)methoxy)(phenoxy)phosphoryl)-L-alaninate] | 94 | 252 | 1.25 | > 47 |  |  |  |  |  |  | 
3 | CCC(CC)COC(=O)[C@@H](C)NP(=O)(OC[C@@]1(C#N)O[C@@H](c2ccc3c(N)ncnn23)[C@H](O)[C@@H]1O)Oc1ccccc1 (stereo partly drawn) [Example 82, (2R)-2-ethylbutyl 2-(((((2R,3S,4R,5S)-5-(4-aminopyrrolo[2,1-f][1,2,4]triazin-7-yl)-2-cyano-3,4-dihydroxytetrahydrofuran-2-yl)methoxy)(phenoxy)phosphoryl)amino)propanoate] | 2510 | 3000 | 9.27 | > 50 |  |  |  |  |  |  | 
4 | C[C@H](N[P@](=O)(OC[C@@]1(C#N)O[C@@H](c2ccc3c(N)ncnn23)[C@H](O)[C@@H]1O)Oc1ccccc1)C(=O)OCC(C)(C)C [Example 94] |  |  |  |  | 100 | 118 | 0.209 | 2.34 |  |  | 
5 | CCCCCCCCCCCCCCCCCCOC[C@H](COP(=O)(O)OC[C@@]1(C#N)O[C@@H](c2ccc3c(N)ncnn23)[C@H](O)[C@@H]1O)OCc1ccccc1 [Example 96, ((2R,3S,4R,5S)-5-(4-aminopyrrolo[2,1-f][1,2,4]triazin-7-yl)-2-cyano-3,4-dihydroxytetrahydrofuran-2-yl)methyl ((R)-2-(benzyloxy)-3-(octadecyloxy)propyl) hydrogen phosphate] |  |  |  |  |  |  | 9.35 |  | 254 | 441 | > 100
6 | CCC(CC)OC(=O)[C@H](C)NP(=O)(OC[C@@]1(C#N)O[C@@H](c2ccc3c(N)ncnn23)[C@H](O)[C@@H]1O)Oc1ccccc1 (stereo partly drawn) [Example 101, (2S)-pentan-3-yl 2-(((((2R,3S,4R,5S)-5-(4-aminopyrrolo[2,1-f][1,2,4]triazin-7-yl)-2-cyano-3,4-dihydroxytetrahydrofuran-2-yl)methoxy)(phenoxy)phosphoryl)amino)propanoate] | 1740 | 1240 | 3.13 | > 100 |  |  |  |  |  |  | 
7 | CCCCCCCCCCCCCCCCOCCCOP(=O)(O)OC[C@@]1(C#N)O[C@@H](c2ccc3c(N)ncnn23)[C@H](O)[C@@H]1O [Example 149, ((2R,3S,4R,5S)-5-(4-aminopyrrolo[2,1-f][1,2,4]triazin-7-yl)-2-cyano-3,4-dihydroxytetrahydrofuran-2-yl)methyl (3-(hexadecyloxy)propyl) hydrogen phosphate] |  |  |  |  |  |  | > 50 |  | 925 | > 891 | > 50
8 | CCCCCCCCCCCCOC(=O)[C@H](C)NP(=O)(OC[C@@]1(C#N)O[C@@H](c2ccc3c(N)ncnn23)[C@H](O)[C@@H]1O)Oc1ccccc1 (stereo partly drawn) [Example 191, dodecyl ((((2R,3S,4R,5S)-5-(4-aminopyrrolo[2,1-f][1,2,4]triazin-7-yl)-2-cyano-3,4-dihydroxytetrahydrofuran-2-yl)methoxy)(phenoxy)phosphoryl)-L-alaninate] | 2380 | 35 | 3.4 | 61.3 |  |  |  |  |  |  | 
